In ChEMBL document CHEMBL3593185, “Synthesis of new fluorinated analogs of GABA, Pregabalin bioisosteres, and their effects on [(3)H]GABA uptake by rat brain nerve terminals” (Bioorg Med Chem, 2015):
Active and inactive are the calls of the source. The calls are words filed in the database; no cut-off is given here.

Key:
Format in all cases: functional, subcellular
[1] = organism: Rattus norvegicus; test: Increase in [3H]GABA uptake initial velocity in Wistar rat synaptosomes measured per mg of protein pretreated at 100 uM for 20 mins with combined application of 30 uM NO-711 GAT1 blocker by scintillation counting
[2] = organism: Rattus norvegicus; test: Increase in [3H]GABA uptake initial velocity in Wistar rat synaptosomes measured per mg of protein pretreated at 200 uM for 20 mins by scintillation counting
[3] = organism: Rattus norvegicus; test: Increase in [3H]GABA uptake initial velocity in Wistar rat synaptosomes measured per mg of protein at 100 uM by scintillation counting (reference value: 205.4 +/- 5 pmol/min*mg of protein)
[4] = organism: Rattus norvegicus; test: Increase in [3H]GABA uptake initial velocity in Wistar rat synaptosomes measured per mg of protein pretreated at 100 uM for 20 mins with combined application of 50 uM SNAP5114 GAT3 blocker by scintillation counting
[5] = organism: Rattus norvegicus; test: Increase in [3H]GABA uptake initial velocity in Wistar rat synaptosomes measured per mg of protein pretreated at 100 uM for 20 mins by scintillation counting (reference value: 153 +/- 7.7 pmol/min*mg of protein)
[6] = organism: Rattus norvegicus; test: Increase in [3H]GABA uptake initial velocity in Wistar rat synaptosomes measured per mg of protein at 200 uM by scintillation counting

Row | SMILES | Activity [1] | Activity [2] | Activity [3] [pmol/min/mg] | Activity [4] [pmol/min/mg] | Activity [5] [pmol/min/mg] | Activity [6]
1 | NCC(CC(=O)O)C(F)(F)C(F)F (racemic) | 27.4 pmol/min/mg | Active | 198 | 125 | 188 | inactive
2 | NC[C@@](O)(CC(=O)O)C(F)(F)F | 27.9 pmol/min/mg | Active | 194 | 128 | 189 | inactive
3 | CC(C)C[C@H](CN)CC(=O)O | inactive |  | 211 |  | 182 | 
4 | NC[C@@H](CC(=O)O)C(F)(F)F | 23.7 pmol/min/mg | Active | 211 | 120 | 179 | inactive
